Results reported in article PMC6362833 (ACS chemical neuroscience, 2017).
Values joined by “and” are separate entries in the source; they are usually repeats but may differ in a detail not shown here. Equal entries are not always repeated.

Columns and labels:
HEK-293T cells = assay: CytoTox-Fluor acute cytotoxicity assay; assay type: cell-based; conditions: 30 min; for effect on cell viability: up to 31.6 μM
CaM/AC8-Nt interaction = CaM/AC8-Nt interaction (Homo sapiens, UniProt P0DP23); assay: Fluorescence polarization; assay type: binding; conditions: for IC50: FP; for slope of concentration-response curve: FP concentration response
CaM/AC8-C2b interaction = CaM/AC8-C2b interaction (Homo sapiens, UniProt P0DP23); assay: Fluorescence polarization; assay type: binding; conditions: for IC50: FP; for inhibition of CaM/AC8-C2b relative to EGTA control: maximal inhibition, no detergent
[1] = target: (Homo sapiens, UniProt P0DP23); assay: CaM-stimulated AC1 activity in membrane preparations; assay type: biochemical; conditions: read-out: AC1 % inhibition
AC1 [2] = assay: as above; assay type: biochemical; conditions: membranes of HEK293 cells stably expressing AC1, CaM-stimulated
Chain of AC1 (Q08828 whole entry): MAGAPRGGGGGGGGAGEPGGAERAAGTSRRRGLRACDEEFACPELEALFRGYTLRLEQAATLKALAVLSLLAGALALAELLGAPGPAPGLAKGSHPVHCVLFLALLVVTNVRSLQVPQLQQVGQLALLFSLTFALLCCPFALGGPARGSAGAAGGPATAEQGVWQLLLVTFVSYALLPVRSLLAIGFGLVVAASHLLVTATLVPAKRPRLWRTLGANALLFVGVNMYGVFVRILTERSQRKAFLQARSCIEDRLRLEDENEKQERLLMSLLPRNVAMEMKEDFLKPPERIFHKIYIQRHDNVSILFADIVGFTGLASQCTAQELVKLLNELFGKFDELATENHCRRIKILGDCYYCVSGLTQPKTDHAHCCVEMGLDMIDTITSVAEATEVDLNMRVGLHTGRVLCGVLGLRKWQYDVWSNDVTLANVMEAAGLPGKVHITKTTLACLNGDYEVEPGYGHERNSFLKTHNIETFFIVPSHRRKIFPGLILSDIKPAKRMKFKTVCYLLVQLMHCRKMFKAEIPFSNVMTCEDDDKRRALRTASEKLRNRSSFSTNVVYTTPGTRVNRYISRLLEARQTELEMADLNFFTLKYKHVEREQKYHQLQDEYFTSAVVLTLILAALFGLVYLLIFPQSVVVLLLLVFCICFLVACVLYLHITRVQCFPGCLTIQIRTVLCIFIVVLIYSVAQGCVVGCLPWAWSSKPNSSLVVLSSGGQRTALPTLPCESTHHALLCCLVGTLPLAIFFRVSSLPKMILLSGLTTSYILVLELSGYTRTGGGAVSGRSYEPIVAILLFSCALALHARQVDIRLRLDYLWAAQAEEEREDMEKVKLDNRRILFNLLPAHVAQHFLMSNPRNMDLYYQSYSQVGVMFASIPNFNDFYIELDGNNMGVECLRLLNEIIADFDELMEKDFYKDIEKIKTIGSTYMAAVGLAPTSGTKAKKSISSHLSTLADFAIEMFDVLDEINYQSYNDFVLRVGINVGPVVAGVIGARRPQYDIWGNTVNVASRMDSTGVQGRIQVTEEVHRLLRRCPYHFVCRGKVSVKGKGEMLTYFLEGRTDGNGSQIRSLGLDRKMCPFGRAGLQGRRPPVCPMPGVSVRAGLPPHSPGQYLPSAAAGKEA

AC8 = AC8 (Homo sapiens, UniProt P40145); assay: CaM-stimulated AC8 activity in membrane preparations; assay type: biochemical; conditions: for inhibition at 100 µM: read-out: AC8 % inhibition; for potency against AC8 compared with AC1: membrane preparations
Chain of AC8 (P40145 whole entry): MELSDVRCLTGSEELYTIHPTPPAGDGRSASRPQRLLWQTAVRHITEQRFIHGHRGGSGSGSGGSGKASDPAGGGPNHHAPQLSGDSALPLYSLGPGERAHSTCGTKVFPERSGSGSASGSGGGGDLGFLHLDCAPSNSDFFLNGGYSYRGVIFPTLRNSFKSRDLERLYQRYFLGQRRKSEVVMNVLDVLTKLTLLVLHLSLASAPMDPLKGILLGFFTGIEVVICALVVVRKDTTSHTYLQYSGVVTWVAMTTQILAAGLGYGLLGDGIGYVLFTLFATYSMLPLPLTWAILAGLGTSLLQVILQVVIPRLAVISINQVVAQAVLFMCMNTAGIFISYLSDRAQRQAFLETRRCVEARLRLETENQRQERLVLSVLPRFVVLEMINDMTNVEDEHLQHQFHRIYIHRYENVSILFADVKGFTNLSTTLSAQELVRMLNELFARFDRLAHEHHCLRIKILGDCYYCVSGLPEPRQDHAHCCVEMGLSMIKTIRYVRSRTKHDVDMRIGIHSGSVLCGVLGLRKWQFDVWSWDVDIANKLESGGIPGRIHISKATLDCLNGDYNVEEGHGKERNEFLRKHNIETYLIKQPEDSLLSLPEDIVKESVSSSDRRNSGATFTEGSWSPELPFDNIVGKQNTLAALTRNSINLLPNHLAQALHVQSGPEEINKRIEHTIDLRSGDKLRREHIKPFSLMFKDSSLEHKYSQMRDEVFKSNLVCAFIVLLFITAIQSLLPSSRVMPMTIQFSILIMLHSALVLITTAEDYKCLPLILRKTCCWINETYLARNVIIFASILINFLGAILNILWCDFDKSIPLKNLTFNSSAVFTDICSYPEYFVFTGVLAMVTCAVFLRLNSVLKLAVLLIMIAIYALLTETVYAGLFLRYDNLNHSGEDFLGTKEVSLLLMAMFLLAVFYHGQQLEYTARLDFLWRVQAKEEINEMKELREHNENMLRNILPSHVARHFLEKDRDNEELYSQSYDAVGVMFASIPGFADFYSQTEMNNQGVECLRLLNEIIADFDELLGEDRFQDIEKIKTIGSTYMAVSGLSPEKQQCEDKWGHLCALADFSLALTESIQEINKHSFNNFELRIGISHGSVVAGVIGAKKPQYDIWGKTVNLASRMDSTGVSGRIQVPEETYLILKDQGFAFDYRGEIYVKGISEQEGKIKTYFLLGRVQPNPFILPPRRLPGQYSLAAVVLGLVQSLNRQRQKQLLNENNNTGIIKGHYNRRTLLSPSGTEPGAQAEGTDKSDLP

CaM/AC8 complex = CaM/AC8 complex (Homo sapiens, UniProt P0DP23); assay: AC8/CaM NanoBiT complementation assay in HEK-293T cells; assay type: cell-based, rat AC8; conditions: 30 min pretreatment
[3] = CytoTox-Fluor acute cytotoxicity assay; assay type: cell-based; conditions: human, HEK293T cells, pH 7.4
HERG potassium channel = conditions: cited from earlier work
L-type Ca^2+ channels = conditions: cited from earlier work
[4] = target: GST-tagged calmodulin (N-terminally 6X-His-GST-tagged human CaM, residues 1-149) (human) (UniProt P0DP23); assay: fluorescence polarisation
AC1 [5] = target: AC1 (Homo sapiens, UniProt Q08828); assay: CaM-stimulated AC1 activity in membrane preparations; assay type: biochemical
Chain of AC1 (Homo sapiens, UniProt Q08828) (Q08828 whole entry): as the sequence (Q08828 whole entry) above

[6] = AC8-Nt pIC50, 0% Triton, 316 nM GST-CaM, 100 nM Cy5-AC8-Nt, no Triton X-100
[7] = AC8-Nt pIC50, 0.01% Triton, 0.01% Triton X-100
[8] = AC8-C2b pIC50, 0% Triton, 316 nM GST-CaM, 100 nM Cy5-AC8-C2b, no Triton X-100
[9] = AC8-C2b pIC50, 0.01% Triton, 0.01% Triton X-100

Row | Molecule | IC50 (CaM/AC8-Nt interaction; [6]) | IC50 (CaM/AC8-Nt interaction; [7]) [µM] | inhibition at 100 µM [1] [%] | AC1 pIC50 (AC1 [2]) | IC50 (AC8) [µM] | inhibition at 100 µM (AC8) [%] | effect on cell viability (HEK-293T cells) | other results
1 | CN1CCN(CCCN2c3ccccc3Sc3ccc(C(F)(F)F)cc32)CC1 [TFP, trifluoperazine] | – | – | – | – | – | – | without negatively affecting cell viability | –
2 | CC(C)(C)CC(C)(C)c1ccc(OCCOCC[N+](C)(C)Cc2ccccc2)cc1 [benzethonium, Benzethonium chloride] | – | – | – | – | – | – | no negative effect on cell viability | –
3 | CCCCCCCCCCCCCCCC[N+](C)(C)CCN(Cc1ccc(OC)cc1)c1ncccn1 [thonzonium, Thonzonium bromide] | 5.37 µM | 9.12 | 77 ± 6 | 4.20 ± 0.06 | 38.9 | 91 ± 1 | did not adversely affect cell viability | effect of Triton X-100 on inhibition of CaM/AC8-C2b (CaM/AC8-C2b interaction; 0.01% Triton X-100): Increased inhibition; IC50 (CaM/AC8-C2b interaction; [8]): 10 µM; IC50 (CaM/AC8-C2b interaction; [9]): 12.6 µM; inhibition of CaM/AC8-C2b relative to EGTA control (CaM/AC8-C2b interaction): approximately 50%; NanoBiT potency (CaM/AC8 complex): potencies similar to that observed for CDZ; potency against AC8 compared with AC1 (AC8): slightly more potent against AC8 than AC1
4 | CCCCCCCCCCCC[N+](C)(C)CCOc1ccccc1 [domiphen, Domiphen bromide] | 14.5 µM | 15.5 | 96 ± 4 | 4.55 ± 0.09 | 17.4 | 104 ± 1 | – | viability at 30 min, 31.6 µM [3]: 99%; IC50 at HERG potassium channel (HERG potassium channel): single-digit nanomolar
5 | NCCCCCCNS(=O)(=O)c1cccc2c(Cl)cccc12 [W7, N-(6-aminohexyl)-5-chloro-1-naphthalenesulfonamide] | – | – | – | – | – | – | without negatively affecting cell viability | –
6 | unlabeled AC8-Nt peptide (from UniProt P40145 30-54) | – | – | – | – | – | – | – | pIC50 [4]: 5.3
7 | Clc1ccc(C(c2ccc(Cl)cc2)n2cc[n+](CC(OCc3ccc(Cl)cc3Cl)c3ccc(Cl)cc3Cl)c2)cc1 (stereo not drawn) [CDZ, calmidazolium chloride] | 2.75 µM and 2.82 µM | 2.88 | 97 ± 3 | 4.87 ± 0.06 | 4.68 | 100 | appreciable cell toxicity at 31.6 μM | inhibition of CaM/AC8-Nt FP (CaM/AC8-Nt interaction; concentration response up to 100 μM, relative to EGTA control): complete inhibition; effect of Triton X-100 on inhibition of CaM/AC8-C2b (CaM/AC8-C2b interaction; 0.01% Triton X-100): Increased inhibition; IC50 (CaM/AC8-C2b interaction; [8]): 3.16 µM; IC50 (CaM/AC8-C2b interaction; [9]): 9.77 µM; inhibition of CaM/AC8-C2b relative to EGTA control (CaM/AC8-C2b interaction): approximately 50%
8 | CCCCCCCCCCCCCCCC[N+](C)(C)C [cetrimonium, cetrimonium bromide] | 11.5 µM | 11.5 | – | – | 22.4 | 102 ± 2 | – | NanoBiT potency (CaM/AC8 complex): potencies similar to that observed for CDZ; viability at 30 min, 31.6 µM [3]: 89%; IC50 (AC1 [5]): 39.8 µM; inhibition at 100 µM (AC1 [5]; read-out: AC1 % inhibition): 86 ± 7%; potency against AC8 compared with AC1 (AC8): slightly more potent against AC8 than AC1
9 | unlabeled AC8-C2b peptide (from UniProt P40145 1191-1214) | – | – | – | – | – | – | – | pIC50 [4]: 4.95

Further lines, with some results ahead:

Row | IC50 (CaM/AC8-Nt interaction; [6]) | IC50 (CaM/AC8-Nt interaction; [7]) [µM] | inhibition at 100 µM [1] [%] | AC1 pIC50 (AC1 [2]) | IC50 (AC8) [µM] | inhibition at 100 µM (AC8) [%] | Molecule | effect on cell viability (HEK-293T cells) | other results
10 | 2.14 µM | 1.41 | 162 ± 10 | 5.24 ± 0.1 | 4.9 | 106 ± 2 | CCCCC(CC)CNC(=N)NC(=N)NCCCCCCNC(=N)NC(=N)NCC(CC)CCCC (stereo not drawn) [alexidine] | – | slope of concentration-response curve (CaM/AC8-Nt interaction): −2.7 ± 0.2; IC50 (CaM/AC8-C2b interaction; [8]): 5.89 µM; IC50 (CaM/AC8-C2b interaction; [9]): 5.89 µM; concentration at which cell viability begins to be reduced (HEK-293T cells; HEK-293T): ≥ 10 µM
11 | 16.6 µM | 33.1 | 103 ± 4 | 4.58 ± 0.03 | 24 | 99 ± 1 | CCCCCCCCOc1ccccc1C(=O)Nc1ccc(C(=O)OCC[N+](C)(CC)CC)cc1 [otilonium, otilonium bromide] | – | slope of concentration-response curve (CaM/AC8-Nt interaction): −3.5 ± 0.2; viability at 30 min, 31.6 µM [3]: 77%; IC50 at L-type Ca2+ channels (L-type Ca^2+ channels): single-digit micromolar
